Assay results published in patent US20130225611A1, “Compositions and Methods for Reducing Cancer Cell Proliferation and Modulating Importin-Beta Function” (THE REGENTS OF THE UNIVERSITY OF CALIFORNIA, priority 2011, published 2013).

What was measured:
[1] = system: importin-β-mediated nuclear import; experiment: ionomycin-induced NFAT-GFP nuclear import in HEK 293 cells; assay type: cell-based, human
From the text: To investigate whether importazole is cell permeable and active in living human cells, a cell line was generated that stably expresses a GFP-tagged version of the transcription factor NFAT (nuclear factor of activated T cells), which shuttles between the nucleus and the cytoplasm in a calcium-regulated manner and is imported by importin-α/β and exported by CRM1. At steady state NFAT is predominantly cytoplasmic. An increase in cytoplasmic calcium induced by the ionophore ionomycin leads to the accumulation of NFAT in the nucleus (FIG. 4A). NFAT import can be reverted upon ionophore withdrawal, (FIG. 5A) providing an inducible system ideal for testing the effects of importazole on importin-β-mediated nuclear import and CRM1-mediated nuclear export, both of which are dependent upon RanGTP.
Cells were pretreated with 40 μM importazole for 1 hour followed by 30 minutes of ionomycin treatment in the continued presence of importazole. […] Thus, it is possible to use importazole in drug-washout experiments to study the Ran/importin-β pathway in cells.
A GFP-NFAT expression plasmid (pKW520) was generated by inserting a BamH I/Hind III-cleaved NFATC1 cDNA fragment into pEGFP-C1 (Clontech) digested with Bgl II and Hind III. The construct was stably transfected into HEK 293 cells and a single clone expressing moderate levels of NFAT-GFP was selected and maintained in Opti-mem media (Gibco) plus 4% fetal bovine serum, 1% penicillin/streptomycin, and 200 μg/ml G418. HeLa cells were grown and maintained according to standard protocols.
For all import and export experiments, HEK 293 cells stably expressing NFAT-GFP were grown on glass coverslips to approximately 50% confluency prior to drug treatment. In all cases, importazole was used at 40 μM and leptomycin B was used at 10 ng/ml. For controls, DMSO was used at a concentration of 0.4%. Ionomycin was added at 1.25 μM. Importazole and leptomycin B treatments were all for 1 hour. In all experiments cells were fixed with 4% formaldehyde prior to fluorescence microscopy. DNA was visualized with 1 μg/ml Hoechst dye.

bovine tubulin = experiment: pure tubulin polymerization and pelleting assay; assay type: biochemical; details: 25 μM bovine tubulin, 5% DMSO, pelleting, SDS PAGE
Procedure: Xenopus laevis egg extracts were prepared as described by Hannak et al. (2006) Nat. Protoc. 1:2305-2314. For in vitro spindle assembly, Xenopus laevis sperm DNA was added to egg extracts supplemented with rhodamine-labeled tubulin. Asters were formed by addition of 5% DMSO. DNA was stained with Hoechst dye. The formation of microtubule-based structures was assessed using epifluorescence microscopy after a 30-minute room temperature incubation. In vitro microtubule polymerization and pelleting assays were performed by incubating 25 μM bovine tubulin, 1 mM GTP, and 5% DMSO in BRB80 buffer (80 mM PIPES, 1 mM MgCl2, 1 mM EGTA, pH 6.8) at 37° C. for 30 minutes. Polymerized microtubules were pelleted through a sucrose cushion, resuspended, and analyzed by SDS PAGE.

[2] = biological target: T1, RanGTP/importin-β interaction (Homo sapiens, UniProt Q14974); experiment: RanGTP protection assay (RanGAP-stimulated hydrolysis); assay type: biochemical; details: 50 μM importazole
T1 construct: made in house; host or cells: E. coli: BL21 (importin-β), SG13 (Ran)
Procedure: For RanGTP protection assays, all steps were performed in buffer containing 50 mM HEPES pH 7.6 with 2.5 mM MgCl2. Loading the Ran with GTP: 40 nM Biotin labeled RCC1 was bound to streptavidin agarose resin for 30 min rotating at 4° C. The Biotin labeled RCC1 was a gift of D. Halpin. The beads were washed with fresh buffer to remove any free RCC1, and 16 μM nucleotide free Ran and 51 μM GTPγP^32 were added and Ran was allowed to load for 30 min at room temperature. The beads were then removed using a spin column, and the remaining supernatant was filtered through a Sephadex G-50 column to remove free GTPγP^32. The loaded Ran was then diluted to 1.6 μM for further use. Performing the assay: All reactions were performed in a final volume of 200 μL at and in buffer containing 50 mM HEPES pH 7.6 with 2.5 mM MgCl2. Importin-β was pre-incubated with either 0.5% DMSO or 50 μM importazole in 0.5% DMSO and 100 nM RanGTPγP^32 at room temperature. 1 μM RanGAP was added to start each reaction, and the reaction was allowed to proceed for 5 min before the reaction was stopped using 1 ml of a solution containing 7% charcoal, 10% ethanol, 0.1 M HCl, and 10 mM KH2PO4. The resulting solution was spun at 10,000 RPM for 2 min in a tabletop centrifuge to pellet the charcoal, and the resulting supernatant was removed and counted for three min per sample in a liquid scintillation counter.

Which “nuclear accumulation of NFAT-GFP after ionomycin addition” value ([1]; HEK 293, 40 μM, 1 hour pretreatment then 30 minutes ionomycin) does the source give for CC(Nc1nc(N2CCCC2)nc2ccccc12)c1ccccc1 (centres unmarked) [importazole, (1-phenyl-ethyl)-(2-pyrrolidin-1-yl-quinazolin-4-yl)-amine] here?
Its value is “virtually no import of NFAT-GFP”.

And the IC50 ([1]; Homo sapiens, HEK293, HEK 293 cells stably expressing NFAT-GFP, read-out: IC50 for inhibition of NFAT-GFP import)?
Its IC50 is about 15 µM.

And the “reversibility of NFAT-GFP import inhibition” value ([1]; washout, 1 hour recovery before ionomycin)?
The value was “reversible upon importazole washout”.

And the “polymerization of pure microtubules” value (bovine tubulin)?
Its value is “does not Affect Pure Microtubules”.

What about the “effect on ability of importin-β to protect RanGTP from RanGAP-stimulated hydrolysis” value [2] of the same compound?
Its value is “do not indicate that importazole disrupts the RanGTP/importin-β interaction”.
